In patent publication US20230040770A1, “HETEROCYCLIC COMPOUND AND USE THEREOF” (TAKEDA PHARMACEUTICAL COMPANY LIMITED, priority 2019, published 2023):

Target: T1, human orexin type 2 receptor (Homo sapiens, UniProt O43614)
T1 construct: expressed in transfected cells
T1 sequence (O43614 1-444): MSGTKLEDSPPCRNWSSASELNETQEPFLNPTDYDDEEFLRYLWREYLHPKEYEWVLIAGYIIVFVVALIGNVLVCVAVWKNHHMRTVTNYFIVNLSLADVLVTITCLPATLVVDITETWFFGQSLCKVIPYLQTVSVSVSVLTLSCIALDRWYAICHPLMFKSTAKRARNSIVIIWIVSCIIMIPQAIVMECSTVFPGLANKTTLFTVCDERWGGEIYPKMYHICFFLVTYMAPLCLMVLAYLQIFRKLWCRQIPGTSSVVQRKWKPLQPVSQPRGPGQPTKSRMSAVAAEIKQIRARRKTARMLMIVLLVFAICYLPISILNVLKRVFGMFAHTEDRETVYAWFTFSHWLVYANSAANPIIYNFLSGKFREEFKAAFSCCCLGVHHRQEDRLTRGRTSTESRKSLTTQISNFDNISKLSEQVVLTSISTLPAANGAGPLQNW
Test: Measurement of orexin type 2 receptor agonist activity (calcium indicator fluorescence, CHO cells forcibly expressing human OX2 receptor)
Assay type: cell-based
Conditions: compound at 3 μM; 0% = DMSO, 100% = orexin A (human) 10 nM
Text: To obtain a cell clone stably expressing human orexin type 2 receptor, human orexin type 2 receptor cDNA was inserted into pcDNA3.1(+) plasmid vector (Invitrogen), and a plasmid DNA for expression of human orexin type 2 receptor (pcDNA3.1(+)/hOX2R) was cloned. The plasmid DNA was introduced into CHO-dhfr cell by an electroporation method, and human orexin type 2 receptor expressing clone cells were obtained by limiting dilution method by using G418 drug resistance as a selection marker.
CHO cells forcibly expressing human OX2 receptor were seeded in each well of 384 well black transparent bottom plate (BD Falcon) at 7,500 cells/well, and cultured for one day in a 5% CO2 incubator at 37° C. After removal of the medium in the cell plate, assay buffer A containing a calcium indicator (HBSS (Thermo Fisher Scientific), 20 mM HEPES (Thermo Fisher Scientific), 0.1% BSA (Sigma-Aldrich), 2.5 μg/mL Fluo-4 AM (DOJINDO Chemical), 0.08% Pluronic F127 (DOJINDO Chemical), 1.25 mM probenecid (DOJINDO Chemical)) was added at 30 μL/well. The plate was stood for 30 min in a 5% CO2 incubator at 37° C., and further stood at room temperature for 30 min. A test compound prepared by diluting with assay buffer B (HBSS, 20 mM HEPES, 0.1% BSA) was added at 10 μL/well, and the fluorescence value was measured by FDSSμCELL (Hamamatsu Photonics K.K.) every one sec for 1 min, and thereafter every two sec for […]. The activity (%) of the test compound was calculated assuming that variation in the fluorescence value when DMSO was added instead of the test compound was 0%, and variation in the fluorescence value when orexin A (human) (PEPTIDE INSTITUTE, INC.) was added at the final concentration of 10 nM was 100%.

OX2R agonist activity (3 μM, %) [%] | SMILES
91 | CC(C)(O)C(=O)N1C[C@H](F)[C@H](NS(=O)(=O)C2CC2)[C@@H]1Cc1cccc(-c2cc(F)cc(F)c2)c1F [Example 370, N-{(2S,3R,4S)-4-fluoro-1-(2-hydroxy-2-methylpropanoyl)-2-[(2,3′,5′-trifluoro[1,1′-biphenyl]-3-yl)methyl]pyrrolidin-3-yl}cyclopropanesulfonamide]
95 | O=C(C1CCO1)N1C[C@H](F)[C@H](NS(=O)(=O)C2CC2)[C@@H]1Cc1cccc(-c2cccc(F)c2)c1F (stereo partly drawn) [Example 385, N-[(2S,3R,4S)-2-[(2,3′-difluoro[1,1′-biphenyl]-3-yl)methyl]-4-fluoro-1-(oxetane-2-carbonyl)pyrrolidin-3-yl]cyclopropanesulfonamide]
96 | Cc1cccc(-c2cccc(C[C@H]3[C@@H](NS(=O)(=O)N(C)C)C(F)(F)CN3C(=O)N(C)C)c2F)c1 [Example 442, (2S,3R)-3-[(dimethylsulfamoyl)amino]-4,4-difluoro-2-[(2-fluoro-3′-methyl[1,1′-biphenyl]-3-yl)methyl]-N,N-dimethylpyrrolidine-1-carboxamide]
96 | CCS(=O)(=O)N[C@@H]1[C@H](Cc2cccc(-c3cccc(C(F)F)c3)c2F)N(C(=O)C2CC2)CC1(F)F [Example 508, N-[(2S,3R)-1-(cyclopropanecarbonyl)-2-{[3′-(difluoromethyl)-2-fluoro[1,1′-biphenyl]-3-yl]methyl}-4,4-difluoropyrrolidin-3-yl]ethanesulfonamide]
95 | CS(=O)(=O)N[C@H]1[C@@H](F)CN(C(=O)C23CC(C2)C3)[C@H]1Cc1cccc(-c2cccc(F)c2)c1F [Example 231, N-{(2S,3R,4S)-1-(bicyclo[1.1.1]pentane-1-carbonyl)-2-[(2,3′-difluoro[1,1′-biphenyl]-3-yl)methyl]-4-fluoropyrrolidin-3-yl}methanesulfonamide]
91 | CCS(=O)(=O)N[C@@H]1[C@H](Cc2cccc(-c3ccccc3)c2F)N(C(=O)C2CC2)CC1(F)F [Example 205, N-{(2S,3R)-1-(cyclopropanecarbonyl)-4,4-difluoro-2-[(2-fluoro[1,1′-biphenyl]-3-yl)methyl]pyrrolidin-3-yl}ethanesulfonamide]
96 | CS(=O)(=O)N[C@@H]1[C@H](Cc2cccc(-c3cccc(Cl)c3)c2F)N(C(=O)C2CC2)CC1(F)F [Example 250, N-[(2S,3R)-2-[(3′-chloro-2-fluoro[1,1′-biphenyl]-3-yl)methyl]-1-(cyclopropanecarbonyl)-4,4-difluoropyrrolidin-3-yl]methanesulfonamide]
94 | CS(=O)(=O)N[C@@H]1[C@H](Cc2cccc(-c3cc(F)cc(Cl)c3)c2F)N(C(=O)C2CC2)CC1(F)F [Example 245, N-[(2S,3R)-2-[(3′-chloro-2,5′-difluoro[1,1′-biphenyl]-3-yl)methyl]-1-(cyclopropanecarbonyl)-4,4-difluoropyrrolidin-3-yl]methanesulfonamide]
78 | CCS(=O)(=O)N[C@H]1[C@@H](F)CN(C(=O)N(C)C)[C@H]1Cc1cccc(-c2cccc(C)c2)c1F [Example 333, (2S,3R,4S)-3-[(ethanesulfonyl)amino]-4-fluoro-2-[(2-fluoro-3′-methyl[1,1′-biphenyl]-3-yl)methyl]-N,N-dimethylpyrrolidine-1-carboxamide]
102 | CCS(=O)(=O)N[C@@H]1[C@H](Cc2cccc(-c3ccc(F)c(F)c3)c2F)N(C(=O)C2CCO2)CC1(F)F (stereo partly drawn) [Example 468, N-{(2S,3R)-4,4-difluoro-1-(oxetane-2-carbonyl)-2-[(2,3′,4′-trifluoro[1,1′-biphenyl]-3-yl)methyl]pyrrolidin-3-yl}ethanesulfonamide]
95 | Cc1cccc(-c2cccc(C[C@H]3[C@@H](NS(=O)(=O)C4CC4)[C@@H](F)CN3C(=O)C3CCO3)c2F)c1F (stereo partly drawn) [Example 487, N-[(2S,3R,4S)-2-[(2,2′-difluoro-3′-methyl[1,1′-biphenyl]-3-yl)methyl]-4-fluoro-1-(oxetane-2-carbonyl)pyrroldiin-3-yl]cyclopropanesulfonamide]
96 | CCS(=O)(=O)N[C@H]1[C@@H](F)CN(C(=O)C23CC(C2)C3)[C@H]1Cc1cccc(-c2cccc(F)c2F)c1F [Example 366, N-{(2S,3R,4S)-1-(bicyclo[1.1.1]pentane-1-carbonyl)-4-fluoro-2-[(2,2′,3′-trifluoro[1,1′-biphenyl]-3-yl)methyl]pyrrolidin-3-yl}ethanesulfonamdie]
80 | CCS(=O)(=O)N[C@@H]1[C@H](Cc2cccc(-c3cccc(C(F)F)c3)c2F)N(C(=O)[C@H]2CCCO2)CC1(F)F [Example 457, N-{(2S,3R)-2-{[3′-(difluoromethyl)-2-fluoro[1,1′-biphenyl]-3-yl]methyl}-4,4-difluoro-1-[(2R)-oxolane-2-carbonyl]pyrrolidin-3-yl}ethanesulfonamide]
98 | CS(=O)(=O)N[C@@H]1[C@H](Cc2cccc(-c3cccc(Cl)c3F)c2F)N(C(=O)C2CCO2)CC1(F)F (stereo partly drawn) [Example 264, N-[(2S,3R)-2-[(3′-chloro-2,2′-difluoro[1,1′-biphenyl]-3-yl)methyl]-4,4-difluoro-1-(oxetane-2-carbonyl)pyrrolidin-3-yl]methanesulfonamide]
90 | CCS(=O)(=O)N[C@@H]1[C@H](Cc2cccc(-c3cc(F)cc(Cl)c3)c2F)N(C(=O)C2CC2)CC1(F)F [Example 248, N-[(2S,3R)-2-[(3′-chloro-2,5′-difluoro[1,1′-biphenyl]-3-yl)methyl]-1-(cyclopropanecarbonyl)-4,4-difluoropyrrolidin-3-yl]ethanesulfonamide]
102 | CCS(=O)(=O)N[C@H]1[C@@H](F)CN(C(=O)C(C)(C)O)[C@H]1Cc1cccc(-c2cccc(Cl)c2F)c1F [Example 347, N-[(2S,3R,4S)-2-[(3′-chloro-2,2′-difluoro[1,1′-biphenyl]-3-yl)methyl]-4-fluoro-1-(2-hydroxy-2-methylpropanoyl)pyrrolidin-3-yl]ethanesulfonamide]
95 | CCS(=O)(=O)N[C@H]1[C@@H](F)CN(C(=O)C2CCO2)[C@H]1Cc1cccc(-c2cccc(F)c2)c1F (stereo partly drawn) [Example 216, N-[(2S,3R,4S)-2-[(2,3′-difluoro[1,1′-biphenyl]-3-yl)methyl]-4-fluoro-1-(oxetane-2-carbonyl)pyrrolidin-3-yl]ethanesulfonamide]
100 | O=C(C1CCO1)N1C[C@H](F)[C@H](NS(=O)(=O)C2CC2)[C@@H]1Cc1cccc(-c2ccccc2)c1F (stereo partly drawn) [Example 482, N-[(2S,3R,4S)-4-fluoro-2-[(2-fluoro[1,1′-biphenyl]-3-yl)methyl]-1-(oxetane-2-carbonyl)pyrrolidin-3-yl]cyclopropanesulfonamide]
83 | CCS(=O)(=O)N[C@H]1[C@@H](F)CN(C(=O)C(C)C)[C@H]1Cc1cccc(-c2ccccc2)c1F [Example 293, N-[(2S,3R,4S)-4-fluoro-2-[(2-fluoro[1,1′-biphenyl]-3-yl)methyl]-1-(2-methylpropanoyl)pyrrolidin-3-yl]ethanesulfonamide]
